For 16 compounds, TGI and GI50 results are on record in PubChem BioAssay (NCI).

Among the test systems are SNB-19 CNS; TK-10 renal; MDA-N; UACC-257 melanoma; EKVX NSCLC; K-562 leukemia; SK-MEL-2 melanoma; MDA-MB-231 breast; NCI-H522 lung.
What all share (test): growth of human tumour cells (NCI), 48 h

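Exposure lasted 48 hours, with cells grown in 96-well plates and compounds tested at five concentrations. GI50: concentration for 50% inhibition of growth. At the TGI there is no net growth.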 A value given as a limit tells only on which side of the number the result lay.

With `Cn1c(-c2ccc(-c3cc(-c4cccs4)c(-c4cccs4)n3C)cc2)cc(-c2cccs2)c1-c1cccs1`, the TGI in the assay on SNB-19 CNS, in the assay with TK-10 renal, with MDA-N, with UACC-257 melanoma, with EKVX NSCLC and in the assay with K-562 leukemia was > 100 µM each time. Further, the TGI in the assay on SK-MEL-2 melanoma and in the assay on MDA-MB-231 breast was > 100 µM each time.

In the case of `O=c1[nH]c2ccccc2c(O)c1Cc1ccccc1`, the TGI with SNB-19 CNS, in the assay with TK-10 renal, in the assay on MDA-N, in the assay with UACC-257 melanoma, in the assay on NCI-H522 lung and in the assay on EKVX NSCLC was > 100 µM each time. Besides, the TGI in the assay with K-562 leukemia and with MDA-MB-231 breast was > 100 µM in each case.

As for `CCC(C)(C)c1cc(O)c(C(C)(C)CC)cc1O`, the GI50 is 2.69 µM in the assay on SNB-19 CNS; 2.46 µM with TK-10 renal; 3.44 µM in the assay with UACC-257 melanoma; 1.98 µM in the assay with NCI-H522 lung; 2.54 µM in the assay on EKVX NSCLC; 1.85 µM with SK-MEL-2 melanoma. Besides, the GI50 with MDA-MB-231 breast was 2.35 µM. The TGI in the assay with SNB-19 CNS stood at 12.6 µM; with TK-10 renal it was 8.19 µM; in the assay with UACC-257 melanoma, 12.1 µM; in the assay on NCI-H522 lung it was 6.03 µM; in the assay with EKVX NSCLC, 14.6 µM; with SK-MEL-2 melanoma, 4.33 µM. This compound also gave a TGI with MDA-MB-231 breast of 8.04 µM.

`CCOC(=O)/C=C/C(=O)O/C=C/[N+](=O)[O-]`: the TGI with TK-10 renal, in the assay on MDA-N, in the assay on UACC-257 melanoma, with NCI-H522 lung, with EKVX NSCLC and in the assay on MDA-MB-231 breast was > 100 µM throughout.

As to `COc1cccc2c1NC(=O)Cc1c-2[nH]c2ccccc12`, the TGI with TK-10 renal, in the assay with NCI-H522 lung, in the assay with EKVX NSCLC, with K-562 leukemia, in the assay with SK-MEL-2 melanoma and with MDA-MB-231 breast was > 100 µM in each case.

Consider `COC(C/C(=C/CO[Si](C(C)C)(C(C)C)C(C)C)C(=O)N(C(=O)OC(C)(C)C)c1ccccc1I)OC`, for which the TGI in the assay on SNB-19 CNS was > 100 µM; in the assay with TK-10 renal, > 100 µM; in the assay with MDA-N, > 100 µM; in the assay on UACC-257 melanoma, > 100 µM; in the assay with NCI-H522 lung, 18.3 µM; in the assay on K-562 leukemia it was > 100 µM. Further, in the assay with SK-MEL-2 melanoma, the TGI worked out at 37.5 µM.

Take `Cc1cc2c(c(C(=O)NCC(=O)N[C@@H](C)C(=O)OCc3ccccc3)c1)Oc1c(cc(C)cc1C(=O)NCC(=O)N[C@@H](C)C(=O)OCc1ccccc1)S2`: the TGI in the assay with SNB-19 CNS, in the assay with MDA-N, in the assay on UACC-257 melanoma, in the assay with EKVX NSCLC, in the assay with K-562 leukemia and in the assay on SK-MEL-2 melanoma was > 100 µM each time. Moreover, the TGI in the assay on MDA-MB-231 breast is > 100 µM.

With `COc1cc(CC(C)=O)cc(OC)c1`, the TGI was > 100 µM in the assay with SNB-19 CNS; > 100 µM with TK-10 renal; 76.9 µM in the assay on MDA-N; > 100 µM in the assay with UACC-257 melanoma; > 100 µM in the assay with EKVX NSCLC; > 100 µM in the assay with K-562 leukemia. In addition, the TGI in the assay with MDA-MB-231 breast was > 100 µM.

`CN(c1ccccc1)S(=O)(=O)c1ccc([N+](=O)[O-])cc1`: the TGI in the assay with SNB-19 CNS, in the assay with TK-10 renal, in the assay on MDA-N, with UACC-257 melanoma, with NCI-H522 lung and in the assay on EKVX NSCLC was > 100 µM each time. Besides, the TGI in the assay with SK-MEL-2 melanoma and in the assay with MDA-MB-231 breast was > 100 µM in each case.

Take `Cc1ccccc1NC(=O)Cc1csc(N/N=C2\NC(=O)/C(=C/c3cccc([N+](=O)[O-])c3)S2)n1`: the TGI with SNB-19 CNS was 34 µM; with TK-10 renal, 36.9 µM; with MDA-N, > 100 µM; in the assay on UACC-257 melanoma, 41.9 µM; in the assay with EKVX NSCLC it was 32.8 µM; in the assay with SK-MEL-2 melanoma, 71.1 µM. Moreover, the TGI with MDA-MB-231 breast was 57.3 µM.

With `Fc1ccc(-c2sc(-c3ccsc3)cc2Cc2ccsc2)cc1`, the TGI in the assay on TK-10 renal, with MDA-N, with UACC-257 melanoma, in the assay with EKVX NSCLC, in the assay on K-562 leukemia and in the assay with MDA-MB-231 breast was > 10 µM in each case.

On to `COc1ccc2c(c1)CC[C@@H]1C2CC[C@]2(C)C(=O)N(CCN(C)C)C(=O)CC12` (some centres not stated), for which the TGI in the assay on SNB-19 CNS, in the assay with TK-10 renal, in the assay with MDA-N, with UACC-257 melanoma, with NCI-H522 lung and in the assay on EKVX NSCLC was > 100 µM throughout. In addition, the TGI in the assay on K-562 leukemia and with MDA-MB-231 breast was > 100 µM each time.

Turning to `Cc1ccc(/C=C/C(=O)Oc2ccc(/C=C3\CCC/C(=C\c4ccc(OC(=O)/C=C/c5ccc(C)cc5)cc4)C3=O)cc2)cc1`, the TGI in the assay with SNB-19 CNS, with TK-10 renal, in the assay on MDA-N, with UACC-257 melanoma, with NCI-H522 lung and in the assay on EKVX NSCLC was > 100 µM each time. Also, the TGI in the assay on SK-MEL-2 melanoma and in the assay on MDA-MB-231 breast was > 100 µM each time.

In the case of `COc1ccc2nc3c([N+](=O)[O-])ccc(NCCN(C)C)c3c(N)c2c1`, the TGI with SNB-19 CNS was 3.98 µM; in the assay on TK-10 renal, 3.09 µM; in the assay with MDA-N, 3.19 µM; in the assay on UACC-257 melanoma it was 3.99 µM; with EKVX NSCLC, 3.79 µM; in the assay on K-562 leukemia, 0.607 µM. Moreover, the TGI in the assay on SK-MEL-2 melanoma is 4.76 µM; with MDA-MB-231 breast, 1.27 µM.

For `Nn1c(Nc2ccc(S(N)(=O)=O)cc2)nnc(/C=C/c2c(O)ccc3ccccc23)c1=O`, the TGI in the assay on SNB-19 CNS was > 100 µM; in the assay on MDA-N, 42 µM; in the assay on UACC-257 melanoma it was 92.8 µM; in the assay on NCI-H522 lung it was 33 µM; in the assay on EKVX NSCLC, 34.2 µM; with K-562 leukemia, 34.5 µM. For the same compound, the TGI in the assay on SK-MEL-2 melanoma is > 100 µM.

Turning to `Cc1nn(C(=O)c2ccccc2O)c2c1C(c1ccc(O)cc1O)SC(N)=N2` (configuration not stated), the TGI in the assay on SNB-19 CNS, in the assay on TK-10 renal, in the assay with MDA-N, in the assay on EKVX NSCLC, in the assay on K-562 leukemia and in the assay with SK-MEL-2 melanoma was > 10 µM in each case. Moreover, the TGI in the assay on MDA-MB-231 breast was > 10 µM.
